Results taken from patent publication US12240841B2, “FXR small molecule agonist and preparation method therefor and use thereof” (Shanghai Institute of Materia Medica, Chinese Academy of …, priority 2019, dated 2025).
Read-outs that look alike come from different tables or passages of the source.

Assays:
[1] = target: T1, recombinant GST-FXR fusion protein (Homo sapiens, UniProt Q96RI1); test: FXR activity at the molecular level (AlphaScreen); type: biochemical
T1 sequence (Q96RI1 1-486): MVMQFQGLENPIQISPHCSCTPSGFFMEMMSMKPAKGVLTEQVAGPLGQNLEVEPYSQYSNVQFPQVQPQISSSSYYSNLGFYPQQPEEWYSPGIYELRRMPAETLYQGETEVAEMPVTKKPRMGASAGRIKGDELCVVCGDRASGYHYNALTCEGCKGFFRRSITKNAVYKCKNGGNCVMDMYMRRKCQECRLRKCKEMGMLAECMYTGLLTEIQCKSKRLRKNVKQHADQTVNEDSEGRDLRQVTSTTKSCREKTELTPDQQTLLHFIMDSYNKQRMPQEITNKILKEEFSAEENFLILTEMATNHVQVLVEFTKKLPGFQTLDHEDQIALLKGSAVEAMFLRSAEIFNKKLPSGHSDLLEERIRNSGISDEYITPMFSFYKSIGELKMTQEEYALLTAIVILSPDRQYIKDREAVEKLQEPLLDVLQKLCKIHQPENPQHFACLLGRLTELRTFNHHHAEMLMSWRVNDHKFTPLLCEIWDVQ
Method: Test Method for FXR Activity at the Molecular Level
FXR activity was determined using recombinant GST-FXR fusion protein by Perkin Elmer's AlphaScreen detection reagent. The reaction in this method was carried out in a 384-well plate, and the total reaction volume was 15 μL. The mixture of protein, agonist, co-regulatory factor, AlphaScreen® acceptor beads and AlphaScreen® donor beads was reacted in a buffer containing Tris-HCl 50 mM (pH7.4), 50 mM NaCl, BSA 0.1%, and 1 mM DTT. The FXR activity was reflected by the fluorescence signal intensity at 570 nm wavelength detected by the Envision fluorescence detector. The value of EC50 was calculated by the software Graphpad Prism 5.

[2] = target: T2, FXR receptor (Homo sapiens, UniProt Q96RI1); test: FXR activity at the cell level (FXRE luciferase reporter in 293T cells); type: cell-based; details: for Activity relative to OCA (%) 10 μM: luciferase reporter
T2 construct: expressed in transfected cells; host or cells: 293T cells
T2 sequence (Q96RI1 1-486): T1 sequence (Q96RI1 1-486)
Method: The cells were cultured for 24 hours to ensure plasmid expression. Then the FXR receptor agonist to be tested was added and acted for 18 hours. The fluorescence intensity was detected using luciferase kit (steady-Glo Luciferase Assay system) to reflect the compound's activation efficiency on the FXR receptor. […] The appropriate concentration interval was selected, and the dose-dependent relationship, that is, the EC50 value, was calculated.

[3] = 293T cells, FXRE luciferase reporter, read-out: EC50 (cell level)

Row | SMILES | EC50 [1] | Activity relative to OCA (%) 10 μM ([2]; 293T cells) | EC50 [2, 3] | EC50 [2]
1 | Cc1ccccc1-c1noc(C2CC2)c1COC1CC2CCC(C1)N2c1ccc(-c2noc(=O)[nH]2)cn1 (stereo not drawn) [Example 40] | 94.4 nM | 105% | 2.11 nM | –
2 | S=c1[nH]c(-c2ccc(N3CCC(OCc4c(-c5c(Cl)cccc5Cl)noc4C4CC4)CC3)cc2)no1 [Example 20] | 5470 nM | 146% | 5 nM | –
3 | O=c1[nH]c(-c2ccc(N3C4CCC3CC(OCc3c(-c5c(F)cccc5F)noc3C3CC3)C4)cc2F)no1 (stereo not drawn) [Example 35] | 18.5 nM | 117% | 0.318 nM | –
4 | O=c1[nH]c(-c2ccc(N3C4CCC3CC(OCc3c(-c5c(Cl)cccc5Cl)noc3C3CC3)C4)cc2)no1 (stereo not drawn) [Example 7] | 6.7 nM | 88% | 6 nM | –
5 | CC(C)c1onc(-c2c(Cl)cccc2Cl)c1COC1CCN(c2ccc(-c3noc(=O)[nH]3)cc2)CC1 [Example 11] | 439 nM | 164% | 0.7 nM | –
6 | O=c1[nH]c(-c2ccc(N3C4CCC3CC(OCc3c(-c5ccccc5C(F)(F)F)noc3C3CC3)C4)cc2F)no1 (stereo not drawn) [Example 37] | 50.6 nM | 102% | 0.284 nM | –
7 | O=c1[nH]c(-c2ccc(N3C4CCC3CC(OCc3c(-c5ccccc5OC(F)F)noc3C3CC3)C4)nc2)no1 (stereo not drawn) [Example 39] | 25 nM | 108% | 1.49 nM | –
8 | O=c1[nH]c(-c2ccc(N3C4CCC3CC(OCc3c(-c5ccccc5OC(F)(F)F)noc3C3CC3)C4)nc2)no1 (stereo not drawn) [Example 34] | 19.7 nM | 122% | 0.388 nM | –
9 | O=c1[nH]c(-c2ccc(N3C4CCC3CC(OCc3c(-c5ccccc5OC(F)F)noc3C3CC3)C4)cc2F)no1 (stereo not drawn) [Example 41] | 28.5 nM | 108% | 0.718 nM | –
10 | Cc1onc(-c2c(Cl)cccc2Cl)c1COC1CCN(c2ccc(-c3noc(=O)[nH]3)cc2)CC1 [Example 10] | 1040 nM | 202% | 0.2 nM | –
11 | O=c1[nH]c(-c2ccc(N3C4CCC3CC(OCc3c(-c5c(Cl)cccc5Cl)noc3C3CC3)C4)nc2)no1 (stereo not drawn) [Example 32] | 4.33 nM | 103% | 0.0783 nM | –
12 | Cc1ccccc1-c1noc(C2CC2)c1COC1CC2CCC(C1)N2c1ccc(-c2noc(=O)[nH]2)c(F)c1 (stereo not drawn) [Example 42] | 80.4 nM | 106% | 0.96 nM | –
13 | O=c1[nH]c(-c2ccc(N3C4CCC3CC(OCc3c(-c5c(F)cccc5F)noc3C3CC3)C4)nc2)no1 (stereo not drawn) [Example 31] | 11.3 nM | 116% | 0.608 nM | –
14 | O=c1[nH]c(-c2ccc(N3C4CCC3CC(OCc3c(-c5ccccc5C(F)(F)F)noc3C3CC3)C4)nc2)no1 (stereo not drawn) [Example 33] | 18.8 nM | 141% | 0.387 nM | –
15 | O=c1[nH]c(-c2ccc(N3CCC(OCc4c(-c5c(Cl)cccc5Cl)noc4-c4ccccc4)CC3)cc2)no1 [Example 12] | 2880 nM | 63% | 35 nM | –
16 | O=c1[nH]c(-c2ccc(N3C4CCC3CC(OCc3c(-c5ccccc5OC(F)(F)F)noc3C3CC3)C4)cc2F)no1 (stereo not drawn) [Example 38] | 51.3 nM | 102% | 0.304 nM | –
17 | O=c1[nH]c(-c2ccc(N3C4CCC3CC(OCc3c(-c5c(Cl)cccc5Cl)noc3C3CC3)C4)cc2F)no1 (stereo not drawn) [Example 36] | 4.22 nM | 102% | – | 0.0317 nM

More lines, main results first:

Row | EC50 [1] | Activity relative to OCA (%) 10 μM ([2]; 293T cells) | EC50 [2, 3] | SMILES | EC50 [2]
18 | 614 nM | 150% | 2 nM | O=c1[nH]c(-c2ccc(N3CCC(OCc4c(-c5c(Cl)cccc5Cl)noc4C4CC4)CC3)c(F)c2)no1 [Example 18] | –
19 | 4700 nM | 83% | 844 nM | O=c1[nH]c(-c2cccc(N3CCC(OCc4c(-c5c(Cl)cccc5Cl)noc4C4CC4)C3)c2)no1 (stereo not drawn) [Example 5] | –
20 | 380 nM | 107% | 0.617 nM | O=c1[nH]c(-c2ccc(N3CCC(OCc4c(-c5ccccc5OC(F)(F)F)noc4C4CC4)CC3)c(F)c2)no1 [Example 28] | –
21 | 257 nM | 161% | 0.3 nM | O=c1[nH]c(-c2c(F)cc(N3CCC(OCc4c(-c5c(Cl)cccc5Cl)noc4C4CC4)CC3)cc2F)no1 [Example 17] | –
22 | 84.7 nM | 103% | 0.12 nM | O=c1[nH]c(-c2c(F)cc(N3CCC(OCc4c(-c5ccccc5C(F)(F)F)noc4C4CC4)CC3)cc2F)no1 [Example 25] | –
23 | 1810 nM | 87% | 14 nM | O=c1[nH]c(-c2cccc(N3CCCC(OCc4c(-c5c(Cl)cccc5Cl)noc4C4CC4)CC3)c2)no1 (stereo not drawn) [Example 3] | –
24 | 70 nM | 103% | 0.254 nM | O=c1[nH]c(-c2ccc(N3CCC(OCc4c(-c5ccccc5OC(F)(F)F)noc4C4CC4)CC3)nc2)no1 [Example 26] | –
25 | 3920 nM | 99% | 32 nM | O=c1[nH]c(-c2ccc(N3CCC(OCc4c(-c5c(Cl)cccc5Cl)noc4C4CC4)C3)cc2)no1 (stereo not drawn) [Example 6] | –
26 | 392 nM | 109% | 2.22 nM | O=c1[nH]c(-c2ccc(N3CCC(OCc4c(-c5ccccc5C(F)(F)F)noc4C4CC4)CC3)c(F)c2)no1 [Example 23] | –
27 | 3140 nM | 132% | 285 nM | Cn1cc(-c2noc(=O)[nH]2)c2cc(N3CCC(OCc4c(-c5c(Cl)cccc5Cl)noc4C4CC4)CC3)ccc21 [Example 19] | –
28 | 55 nM | 90% | 4 nM | O=c1[nH]c(-c2ccc(N3CCC(OCc4c(-c5ccccc5OC(F)(F)F)noc4C4CC4)CC3)cc2)no1 [Example 9] | –
29 | 72 nM | 174% | 1 nM | O=c1[nH]c(-c2ccc(N3CCC(OCc4c(-c5c(Cl)cccc5Cl)noc4C4CC4)CC3)cc2)no1 [Example 2] | –
30 | 386 nM | 108% | 1.99 nM | O=c1[nH]c(-c2ccc(N3CCC(OCc4c(-c5ccccc5C(F)(F)F)noc4C4CC4)CC3)cn2)no1 [Example 22] | –
31 | 89 nM | 120% | 0.255 nM | O=c1[nH]c(-c2c(F)cc(N3CCC(OCc4c(-c5ccccc5OC(F)(F)F)noc4C4CC4)CC3)cc2F)no1 [Example 30] | –
32 | 178 nM | 111% | 0.7 nM | O=c1[nH]c(-c2ccc(N3CCC(OCc4c(-c5c(Cl)cccc5Cl)noc4C4CC4)CC3)nc2)no1 [Example 13] | –
33 | 96.7 nM | 117% | 1.32 nM | O=c1[nH]c(-c2ccc(N3CCC(OCc4c(-c5ccccc5C(F)(F)F)noc4C4CC4)CC3)nc2)no1 [Example 21] | –
34 | 598 nM | 74% | 5 nM | O=c1[nH]c(-c2ccc(N3CCC(OCc4c(-c5c(Cl)cccc5Cl)noc4C4CC4)CC3)cn2)no1 [Example 14] | –
35 | 59 nM | 105% | 0.196 nM | O=c1[nH]c(-c2ccc(N3CCC(OCc4c(-c5ccccc5C(F)(F)F)noc4C4CC4)CC3)cc2F)no1 [Example 24] | –
36 | 2650 nM | 159% | 3 nM | Cc1cc(-c2noc(=O)[nH]2)ccc1N1CCC(OCc2c(-c3c(Cl)cccc3Cl)noc2C2CC2)CC1 [Example 15] | –
37 | 195 nM | 168% | 0.2 nM | O=c1[nH]c(-c2ccc(N3CCC(OCc4c(-c5c(Cl)cccc5Cl)noc4C4CC4)CC3)cc2F)no1 [Example 16] | –
38 | 15 nM | 97% | 0.6 nM | O=c1[nH]c(-c2ccc(N3CCCC(OCc4c(-c5c(Cl)cccc5Cl)noc4C4CC4)CC3)cc2)no1 (stereo not drawn) [Example 4] | –
39 | 108 nM | 120% | 0.938 nM | O=c1[nH]c(-c2ccc(N3CCC(OCc4c(-c5ccccc5OC(F)(F)F)noc4C4CC4)CC3)cc2F)no1 [Example 29] | –
40 | 20.9 nM | 106% | 0.357 nM | O=c1[nH]c(-c2ccc(N3CCC(OCc4c(-c5ccccc5OC(F)(F)F)noc4C4CC4)CC3)cn2)no1 [Example 27] | –
